Data as given in US10125105B2, “Triazabutadienes as cleavable cross-linkers” (ARIZONA BOARD OF REGENTS ON BEHALF OF THE UNIVERSITY OF …, priority 2014, dated 2018).

Assays:
[1] = Stability in D2O / water in the dark by NMR; format: physicochemical
Experimental: (§1) For decomposition experiments, buffers were made to the appropriate pH in a 9:1 mix of H2O:D2O. These solutions were added to the compound being assayed such that the buffer capacity was at least 10 fold the concentration of the compound. Some experiments used 5 mg compound in 0.5 mL of buffer. These were immediately inserted into an NMR instrument and scans were taken at even time intervals to calculate the half-life of the compound based on integration.
To render the triazabutadiene water-soluble, methyl imidazole was alkylated with propane sultone to provide the Zwitterionic NHC precursor Compound 5a (see FIG. 6E). […] Compound 6a was highly colored, so its pH dependence was studied using UV/Vis. The reactions were not only pH-, but also scan-frequency dependent. […] Even in the dark it was unstable, but not in the diazonium-forming way. Both Compound 6b and a more hindered mesityl (Mes) substituted Compound 6c (see FIG. 6E) were synthesized to stabilize what was initially considered to be a rearrangement pathway that could be blocked by steric repulsion. […] It is not yet clear that the hypothesis of a simple rearrangement was correct. […]
As mentioned above, Compound 6c was reasonably stable in pure D20. […] The decomposition to diazonium salts and Compound 7 was measured as a function of pH in phosphate/citrate buffers from pH 4-7 and in a phosphate buffer from pH 6-8. […]

[2] = pH-dependent decomposition to diazonium salts in buffers by NMR; format: physicochemical; conditions: phosphate/citrate buffers pH 4-7, phosphate buffer pH 6-8
Experimental: as §1
As mentioned above, Compound 6c was reasonably stable in pure D20. Upon adjusting the pH to 5 with HCl, a rapid initial consumption of Compound 6c to Compound 7 (see FIG. 6E) and a benzenediazonium salt was noted. After this initial burst of reactivity, a slowing and apparent arresting of the reaction was noted. At this pH the hydronium was the limiting reagent. All future reactions were run in buffers with a buffer capacity sufficient to maintain a large excess of hydronium ions. The experiments were performed in 90:10 H2O:D2O buffered solutions to minimize considerations of pH vs. pD. The decomposition to diazonium salts and Compound 7 was measured as a function of pH in phosphate/citrate buffers from pH 4-7 and in a phosphate buffer from pH 6-8. All runs provided linear correlations of concentration and time, indicating a pseudo-zero order reaction (first order with respect to hydronium ion with a large excess of hydronium ions). […]

- compound consumed after 24 hours ([1]; D2O, in the dark, room temperature, NMR): less than 10%
- compound consumed after 6 hours ([1]; non-buffered 90:10 H2O:D2O solution): > 7%
- centre of sigmoidal correlation between decomposition rate and buffer pH [2]: 6 pH
SMILES: Cc1cc(C)c(-n2ccn(CCCS(=O)(=O)[O-])c2=NN=Nc2ccccc2)c(C)c1.[K+] [Compound 6c, Potassium 3-(3-mesityl-2-(phenyltriaz-2-en-1-ylidene)-2,3-dihydro-1H-imidazol-1-yl) propane-1-sulfonate]
